According to patent publication US20080161583A1, “Epimerization methodologies for recovering stereoisomers in high yield and purity” (priority 2006, published 2008):
In brackets after ≈: the same amount, converted by molar mass.

Test: Solubility of an epimer in a solvent at the epimerization temperature (saturated slurry, filtered sample, HPLC assay)
Type: physicochemical
Conditions: saturated slurry in denatured ethanol (2B-3), organic solvent or mixture, thermodynamic from solid
Procedure: The solubility of a first epimer in a solvent may be determined as follows. Sampling syringes and saturated slurry samples are pre-heated (or pre-chilled) to the desired epimerization temperature, e.g., 65 C or 70 C in some embodiments. The syringe is preheated (or pre-chilled) to the same temperature in a vessel containing only the solvent and the syringe. The syringes may be 5 ml disposable syringes. The saturated slurry samples are prepared by combining the solvent under investigation and enough of the purified first epimer to ensure that at least some precipitate is present so that the sample slurry is saturated. A purified epimer refers to an epimer having a purity of at least 85% by weight with respect to the total weight of epimers, preferably at least 90% by weight, more preferably at least 95% by weight. When both the sample and the syringe are at the desired temperature, 1.5 ml samples are quickly drawn into the syringe. The sampling syringes desirably acquire samples through a suitable filter to avoid bringing solids into the syringe. A 25 mm, 0.45 micron PTFE disk filter is suitable. 1 ml of each sample is blown down and then diluted in 10 ml of a solvent in which the epimer is fully soluble such as methanol. HPLC analysis is then performed to determine the amount of epimer in the diluted sample. […]

solubility (65 C): 23.2 mg/mL (≈ 53.9 mM)
solubility (70 C): 27.1 mg/mL (≈ 62.8 mM)
Structure (SMILES): CC1(C)COC2(CC[C@H](CC(C(=O)O)c3ccc(S(C)(=O)=O)c(Cl)c3)C2)OC1 (some centres unmarked) [R,R epimer]
